The data set can be described thus: gradient 5% acetonitrile 3 min, to 50% in 2 min, to 85% in 15 min, held 3 min, 100 µL/min. The following applies: column: Zorbax Extend-C18 2.1 x 50 mm; eluents: water / acetonitrile, 0.1% formic acid. The method in brief:
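Values are retention times taken from adduct peaks that software picked and an analyst inspected. The pure standards were run as mixtures of ~100 molecules on HPLC linked to a quadrupole time-of-flight mass spectrometer, in positive and negative ionization mode. A Zorbax Extend-C18 column (2.1 × 50 mm, 1.8 μm) was used at 100 μL/min with water and acetonitrile, each including 0.1% formic acid.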
As to `COc1cc2c(cc1OC)C(C(=O)N1CCN(c3ccccn3)CC1)C1c3ccccc3CCN1C2=O` (configuration not stated), the RP-LC retention time stood at 590 s.
In the case of `CC(C)c1ccc(NC(=O)CN2C(=O)C3CCCCN3c3ccc(C(=O)N4CCOCC4)cc32)cc1` (configuration not stated) it was 909 s; in that of `COc1cccc(CNC(=O)C2(C)CCN(C(=O)Nc3ccc(C)c(Cl)c3)CC2)c1`, 930 s.
Compound `CCOC(=O)CNC(=O)NCc1cccn1Cc1cc(C)ccc1C` displayed an RP-LC retention time of 888 s.
In the case of `CCOc1nc2ccccc2nc1N1CCCC(C(=O)Nc2ccccc2CC)C1` (configuration not stated), the RP-LC retention time is 1120 s.
The compound `Cc1ccc(-c2ncc(C(=O)NCc3ccccc3C)c(-c3ccncc3)n2)cc1` yielded an RP-LC retention time of 909 s.
With `Cc1cc(C)n(CC(=O)N2CCN(c3ccccc3F)CC2)c1-c1nc(C2CC2)no1`, the RP-LC retention time is 971 s.
In the case of `CCCCn1c(CN2CCOCC2)nc2cc(NC(=O)c3cccs3)ccc21`, the RP-LC retention time is 678 s.
`COc1cc(C(C)=O)ccc1OCCCN1CCC(c2noc3cc(F)ccc23)CC1` returned an RP-LC retention time of 720 s.
Compound `CC(C)CCNC(=O)C1CCCCC(=O)N1` (configuration not stated) came in with an RP-LC retention time of 670 s.
Turning to `Cc1sc(-c2noc(C(C)C)n2)cc1S(=O)(=O)N1CCC(C(=O)Nc2cccc(C#N)c2)CC1`, the RP-LC retention time amounted to 1090 s.
`Cc1ccc(-c2ccc3nnc(CCC(=O)NCCCOC(C)C)n3n2)cc1C` registered an RP-LC retention time of 795 s.
As for `Nc1c(C(=O)NCc2ccc3c(c2)OCO3)nsc1C(=O)N1CCN(c2ccccn2)CC1`, the RP-LC retention time came to 663 s.
In the case of `Cc1ccc(CNC(=O)Cn2c(=O)cc(-c3nc(C)no3)c3ccccc32)cc1`, the RP-LC retention time is 857 s.
Consider `CCN(CC)CCCNC(=O)CCc1c(-c2ccc(Cl)cc2)nc2ccccn12`, for which the RP-LC retention time was 558 s.
Take `CC(C)c1ccc(NC(=O)C2CCN(S(=O)(=O)c3ccc4c(c3)sc(=O)n4C)CC2)cc1`: the RP-LC retention time worked out at 993 s.
In turn, `COc1ccc2[nH]c(=O)c(CCC(=O)N(C)CCc3ccccn3)cc2c1` registered an RP-LC retention time of 578 s.
In the case of `COCCc1noc(-c2cnc3nc(C)ccc3c2Nc2ccccc2)n1` it was 677 s; in that of `O=C(NC1(c2nc(-c3ccncc3)no2)CCCCC1)C1CCCC1`, 861 s.
Compound `Cc1ccc(C)c(S(=O)(=O)N2[C@H]3CC[C@@H]2c2cnc(-c4ccc(F)cc4)nc2C3)c1` yielded an RP-LC retention time of 1270 s.
Take `COc1cc(NC(=O)C2=C(C)OCCS2)c(Cl)cc1C(=O)N1CCN(C2CCCCC2)CC1`: the RP-LC retention time was 684 s.
Regarding `O=C(c1ccc(N2C[C@H]3C[C@H](C2)[C@H]2CCCC(=O)N2C3)nc1)N1CCN(c2ncccn2)CC1`, the RP-LC retention time is 567 s.
With `O=C(NCCn1c(C(F)(F)F)nc2cccnc21)c1ccc(Br)o1`, the RP-LC retention time was found to be 740 s.
Consider `Cc1ccc(C)c(CNC(=O)c2ccc(NC(=O)C3CC3)cc2N2CCOCC2)c1`, for which the RP-LC retention time came to 856 s.
To `Cc1nn2c(N3CCN(c4ccccn4)CC3)c3c(nc2c1-c1ccccc1)CCC3` belongs 720 s.
In the case of `CCc1nc(OCC(=O)Nc2ccccc2C(F)(F)F)c2ccccc2n1` it was 846 s; in that of `CCn1nccc1-c1cccc(-c2noc(C3CCN(S(=O)(=O)c4ccc(Cl)cc4)CC3)n2)c1`, 932 s.
`COC(=O)c1ccc2c(=O)n(-c3ccc(F)c(Cl)c3)c(N3CCN(c4ccccn4)CC3)nc2c1` gave an RP-LC retention time of 762 s.
`COc1ccc(CNC(=O)Cn2c(C)nc3c(sc4nc(-c5ccccc5)ccc43)c2=O)cc1` showed an RP-LC retention time of 970 s.
`COc1ccc(-c2nnc(COc3ccc(NC(=O)c4ccnc(Cl)c4)cc3)o2)cc1` yielded an RP-LC retention time of 868 s.
To `Cc1ccc(CNC(=O)C2(C)CCCN(C(=O)Nc3ccc(C)c(F)c3)C2)cc1` (configuration not stated) belongs 857 s; to `CC(=O)c1cccc(NC(=O)Cn2cccc2-c2nc(-c3ccccc3)cs2)c1`, 1030 s; to `Cc1ccc(-n2nc3c(N4CCCC(C(=O)N5CCOCC5)C4)nnc(C)c3c2C)cc1` (configuration not stated), 736 s.
Compound `CCc1ccc2c(c1)cc(S(=O)(=O)c1ccccc1)c(=O)n2CC(=O)NCc1ccc(F)cc1` had an RP-LC retention time of 971 s.
For `CCc1ccc(NC(=O)Cn2cnc3onc(C)c3c2=O)cc1`, the RP-LC retention time was determined as 843 s.
Compound `CC(C)n1c(=O)sc2cc(S(=O)(=O)N3CCC(C(=O)NCCN4CCCC4)CC3)ccc21` gave an RP-LC retention time of 648 s.
With `CN1C(=O)c2cccnc2Sc2cc(NC(=O)c3ccc(Br)o3)ccc21`, the RP-LC retention time came out at 788 s.
On to `O=C(Nc1ccc(N2CCN(C3CCCC3)C2=O)nc1)c1ccncc1`, for which the RP-LC retention time came to 635 s.
As for `CCCN1C(=O)COc2ccc(-c3csc(NC(=O)c4cccc(Cl)c4)n3)cc21`, the RP-LC retention time was 1150 s.
`COC(=O)C1=CN(C2CC2)c2cc(N3CCCCC3)c(F)cc2S1(=O)=O` came in with an RP-LC retention time of 932 s.
For the compound `Cc1cccc(-c2nnc(-c3cccc(S(=O)(=O)N4CCOCC4)c3)o2)c1`, the RP-LC retention time amounted to 885 s.
On to `CC(C)Oc1ccc(CNC(=O)c2nnc(-c3ccc(S(=O)(=O)N(C)C)cc3)o2)cc1`, for which the RP-LC retention time is 943 s.
In turn, `Cc1ccnc(N2CCC(C(=O)NC(C)c3ccc4c(c3)OCCO4)CC2)n1` (configuration not stated) showed an RP-LC retention time of 672 s.
For `CCOc1ccc2nc(NC(=O)C3CCN(S(=O)(=O)c4cn(C)c(C)n4)CC3)sc2c1`, the RP-LC retention time came out at 772 s.
To `COc1cc(Cl)ccc1C(=O)N1CCN(c2nc3ccncc3n(C)c2=O)CC1` belongs 638 s.
In turn, `COc1ccc(NC(=O)Cn2nc3n(c2=O)CCCC3)cc1OC` came in with an RP-LC retention time of 595 s.
`CCCN1CCN(CCCNc2nc(-c3ccc(Cl)cc3)nc3ccccc23)CC1` yielded an RP-LC retention time of 584 s.
Compound `CC1CCC(NC(=O)c2nnn(Cc3cccc(F)c3)c2-n2cccc2)CC1` (configuration not stated) yielded an RP-LC retention time of 1160 s.
Consider `Cc1ccc(N2C(=O)CC(N3CCC(C(N)=O)CC3)C2=O)cc1C` (configuration not stated), for which the RP-LC retention time is 607 s.
Compound `COc1cccc(CN2CCC([C@H]3[C@@H](OC)C(=O)N3C(C)C)CC2)n1` returned an RP-LC retention time of 602 s.
`CC(C)NC(=O)N1Cc2ccccc2OC2(CCN(C)CC2)C1`: the RP-LC retention time was found to be 591 s.
The compound `Cn1nc2c(c1NC(=O)c1ccc(Cl)s1)CCC2` displayed an RP-LC retention time of 724 s.
On to `Cc1ccc(C)c(NS(=O)(=O)c2ccc(-c3nnc(C4CCC4)o3)o2)c1`, for which the RP-LC retention time was 960 s.
`CC(C)c1cccc(NC(=O)Cn2ncc3c(c2=O)N(C2CC2)C(=O)CS3)c1` had an RP-LC retention time of 812 s.
In the case of `Brc1ccc(C(c2nnc(-c3ccccc3)o2)N2CCN(c3ccccn3)CC2)cc1` (configuration not stated) it was 800 s; in that of `CSc1ccc(CNC(=O)C2CCCN(C(=O)Cc3cccc4ccccc34)C2)cc1` (configuration not stated), 951 s.
In the case of `Cc1sc(-c2noc(C3CC3)n2)cc1S(=O)(=O)N1CCC(C(=O)NC2CCC(C)CC2)CC1` (configuration not stated) it was 1120 s; in that of `Cc1ccc(NS(=O)(=O)c2cc(-c3cc(C(F)(F)F)on3)cs2)c(Br)c1`, 1160 s.
As to `COc1ccc(-c2noc(C3CCCN3C(=O)c3cccnc3SC)n2)cc1` (configuration not stated), the RP-LC retention time was 907 s.
`COc1ccc2[nH]cc(CN3CC[C@H](c4n[nH]c(C)n4)[C@H](N(C)C)C3)c2c1` showed an RP-LC retention time of 547 s.
`NC(=O)c1oc2ccccc2c1NC(=O)C1CCCCN1S(=O)(=O)c1cccs1` (configuration not stated) had an RP-LC retention time of 825 s.
In the case of `COc1ccc(CNC(=O)c2cc3c(=O)n(C)c4ccccc4n3n2)c(OC)c1`, the RP-LC retention time worked out at 784 s.
The compound `O=C(NCc1ccc(-c2noc(-c3ccc(F)cc3F)n2)s1)C1CC1` came in with an RP-LC retention time of 893 s.
In turn, `CCS(=O)(=O)N1CCC(C(=O)NCCc2csc(-c3ccccc3)n2)CC1` yielded an RP-LC retention time of 765 s.
As for `Cc1ccc(CNC(=O)Cn2cnc3c(c(C)c(C)n3-c3ccc(Cl)cc3)c2=O)o1`, the RP-LC retention time came to 930 s.
On to `O=S(=O)(c1cccn2c(SCc3cccc(F)c3)nnc12)N1CCCC1`, for which the RP-LC retention time was 831 s.
In turn, `O=C(c1ccc(Br)o1)N1CCC(c2cnn(-c3ccc(F)cc3)c2)CC1` yielded an RP-LC retention time of 984 s.
`COc1cc(CN2CCC3(CC2)CC(C)(O)CCO3)cc(OC)c1` (configuration not stated) came in with an RP-LC retention time of 561 s.
Compound `Cn1c(CC2CCN(C(=O)COc3cccc(Cl)c3)C2)nc2cccnc21` (configuration not stated) displayed an RP-LC retention time of 608 s.
With `Cc1ccc2nc(-c3ccc(N(C)C)cc3)c(Nc3ccc4c(c3)OCCO4)n2c1`, the RP-LC retention time was found to be 726 s.
Compound `COC(=O)C1CN(c2ccc(OC)cc2)N=C1C(C)=O` (configuration not stated) had an RP-LC retention time of 850 s.
To `CCCNC(=O)c1ccc(-c2ccc(N3CCSCC3)nc2)cc1` belongs 666 s; to `CC(C)N(CC[C@H](c1ccccc1)c1cc(CO)ccc1O)C(C)C`, 678 s; to `Cc1cccc(-c2nc(C)c3c(n2)N(Cc2ccco2)C(=O)CC3)c1`, 1110 s.
`COc1ccc(S(=O)(=O)CCc2noc(C(=O)NCCc3ccc(SC)cc3)n2)cc1`: the RP-LC retention time turned out to be 930 s.
`Cc1cccc(N2CCN(C(=O)C3CCN(Cc4cn(C)c5ccc(Cl)cc45)CC3)CC2)c1C` gave an RP-LC retention time of 878 s.
Take `CCN1CCN(CCCNC(=O)c2nnc(-c3ccc(S(=O)(=O)N4CCCC4)cc3)o2)CC1`: the RP-LC retention time came out at 581 s.

For the origin of these results see the METLIN SMRT retention time set (Domingo-Almenara et al. 2019).
